The values that follow come from patent US6025387A, “Gastroprotective flavone/flavanone compounds with therapeutic effect on inflammatory bowel disease” (Dong a Pharmaceutical Co., Ltd., priority 1996, dated 2000).

The subject of test [1] is chronic gastritis induced with acetic acid. The experiment in a line: Model of chronic gastritis induced with acetic acid. It counts as in vivo, SD male rat. Particulars: once a day for 21 days, rat. Here is the method: Experiment on the Model of Chronic Gastritis Induced with Acetic Acid
From the next day of the surgical operation, the compound was orally administered once a day for 21 days. After 21 days, the stomach was extracted under ether anesthesis, dipped in 1% formalin solution and the area of gastric lesion was measured. […] An pathological tissue autopsy was carried out for the prepared specimen.

A further test relates to TNBS-induced colitis. The test is described as follows: TNBS-induced colitis model, intracolonic (rectal) administration. It counts as in vivo, male SD rats. Particulars: once a day for 13 days, rat. Here is the method:
Experiment on the Model of Inflammatory Bowl Diseases Induced with TNBS
The modified method of Shibata et al. (Dig. Endosc. 1993, 5: 13) was used. 7 week-aged male SD rats were fasted for a day, and the rats were put under anesthesia and canula (diameter 3 mm) was inserted into the anus to the depth of 8 cm. 25 mg/mL of TNBS (Trinitrobenzene sulfonic acid) dissolved in 50% ethanol solution was injected to each rat and the rats were positioned at feature of tail up for 1 minute. The solution flowing out was removed and the rats were once washed with 1.5 mL of saline solution. After colitis was induced, the compound was administered orally or intracolonically once a day for 13 days. For control, mesalazine (5-amino salicylic acid) was used for oral administration and prednisolone was used for rectal administration. At 14th day of experiment, each group of the rats were put under ether anesthesis, the colon was extracted and the degree of adhesion and extension of the large intestine were measured and their lesion scores were recorded. After 1% formalin solution was injected to the cavity of the extracted colon to inflate, the both ends of it were bonded with each other and it was all-fixed in 1% formalin solution for 2 hours. The all-fixed colon was cut to lengthy direction and washed to remove surrounding fat tissues and connective fissaes. After cecum was removed, the weight of the colon and the rectum was measured, and the area of ulcer lesion, and microscopic lesion were measured to mark scores according to the criterion. And they were fixed in 10% neutral formalin solution, and the tissue examination of lesion site was performed by general method to mark scores according to the criterion.
Macroscopic evaluation: We measured the number and the width of the ulcer and lesion area formed in the large intestine, by using modified Wallace's method (Can. J. Physiol. Pharmacol., 1988, 66: 422). We scored the lesion examined with the naked eye and compared the average value of each group. The standards of lesion scores as criterion of the damage of the colon by Wallace's method is as followings.
(0: normal, non-damaged, 1: congestion without ulcer 2: congestion and thickening of intestinal wall without ulcer, 3: an ulcer lesion without thickening of intestinal wall, 4: more than two ulcerous/inflammatory lesion, 5: more than two ulcerous/inflammatory lesion or the length of ulcerous/inflammatory lesion is more than 1 cm, 6-10: when the length of lesion is over 2 cm, one point increases everytime 1 cm of the length of ulcerous/inflammatory increases, for example, when the ulcer length is 3 cm, the point is 7.)

Test [2] relates to gastric mucosal damage induced by ethanolic HCl. The experiment in a line: Gastritis model induced with ethanolic-HCl. It counts as in vivo, SD male rat. The note with it: po, 1 h, rat; for inhibition in vivo at 0.3 mg/kg: 0.3 mg/kg p.o.; for inhibition in vivo at 1 mg/kg: 1 mg/kg p.o.; for inhibition in vivo at 3 mg/kg: 3 mg/kg p.o.; for inhibition in vivo at 10 mg/kg: 10 mg/kg p.o. Here is the method:
Effect on the Gastritis Model Induced with Ethanolic-HCl.
SD male rat(250-350 g) was fasted for 24 hours. The compound was orally administered in suspension of 5% HPMC, and after 1 hour 1.5 mL of 150 mM HCl-80% ethanol was orally administered. After 1 hour the rat was sacrifieced and the stomach was extracted and the ulcer index was measured. The ulcer index was shown by the area of hemorrhage lesion(Mizui, T, et al., Jpn. J. Pharmacol. 1983, 33: 939).

The next test deals with T1, 5-lipoxygenase (Rattus norvegicus, UniProt P12527).
T1 construct: endogenous in cells; host or cells: casein-elicited rat peritoneal neutrophils
T1 sequence (P12527 1-673): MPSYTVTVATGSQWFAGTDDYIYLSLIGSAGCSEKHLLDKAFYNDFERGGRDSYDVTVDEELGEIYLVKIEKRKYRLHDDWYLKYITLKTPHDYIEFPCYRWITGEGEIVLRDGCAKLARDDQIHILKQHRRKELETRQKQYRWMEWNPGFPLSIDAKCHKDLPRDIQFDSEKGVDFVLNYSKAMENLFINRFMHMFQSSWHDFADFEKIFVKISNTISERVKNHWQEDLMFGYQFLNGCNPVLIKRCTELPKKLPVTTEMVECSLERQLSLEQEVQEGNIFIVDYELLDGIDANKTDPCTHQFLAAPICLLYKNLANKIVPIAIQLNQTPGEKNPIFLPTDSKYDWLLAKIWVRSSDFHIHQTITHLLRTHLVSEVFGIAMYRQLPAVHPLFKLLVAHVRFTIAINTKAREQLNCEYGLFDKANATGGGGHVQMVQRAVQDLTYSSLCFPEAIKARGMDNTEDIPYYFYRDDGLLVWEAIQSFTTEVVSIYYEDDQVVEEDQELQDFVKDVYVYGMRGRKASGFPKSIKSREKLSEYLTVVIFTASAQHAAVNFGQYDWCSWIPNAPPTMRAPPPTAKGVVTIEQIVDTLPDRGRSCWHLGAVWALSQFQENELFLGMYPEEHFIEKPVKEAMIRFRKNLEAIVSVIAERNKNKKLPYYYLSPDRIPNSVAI
The experiment in a line: 5-lipoxygenase activity (LTB4 in A23187-stimulated peritoneal neutrophils). It counts as cell-based. The method, then: Measurement of 5-lipooxygenase Activity
Modified Safayhi et al.'s method (Safayhi, H., et al., Biochem. Pharmacol. 1985, 34: 2691) was used to this experiment. Peritoneal neutrophil was separated from the rat which was treated with casein solution. The compound was added to 10^7 cells (5×10^6 cells/mL, 2 mL) of neutrophil after 2 minutes Ca^2+ -ionophore, A23187 (1 μg/mL) was added and the mixture was incubared at 37° C. for 10 minutes. The reaction mixture was centrifuged and the supermatant was taken up. The amount of LTB4 in the supermatant was measured by radioimmunoassay.

Another test has as its system cyclooxygenase. The test is described as follows: Cyclooxygenase activity in HUVEC (PGF1 α synthesis). Type of test: cell-based. Here is the method:
Measurment of Cyclooxygenase Actvity
After addition of the compound to cultured HUVEC, the HUVEC was incubated at 37° C., for 30 minutes, then arachidonic acid (final concentration: 30 .rho.M) was added, and the HUVEC was additionally incubated at 37° C. for 15 minutes. The culture medium was taken, and the activity of cyclooxygenase for 6-Keto-PGF1 α or PGE2 was measured by radioimmunoassay (Mitchell, J. A., et al., Pro. Natl. Acad. Sci. USA 1994, 90: 11693-11697).
**SC200 (ug/mL) : Concentration at increasing generation of […]

In the next test the test system is gastric mucus secretion. The experiment in a line: Measurement of gastric mucus. Type of test: in vivo, SD male rat. The note with it: oral, rat. The method, then: Measurement of Gastric Mucus
The compound was orally administered into SD male rat (200~250 g). After 1 hour the stomach was extracted. The extracted stomach was immediately washed with 10 mL of cold 0.25M sucrose solution. The gastric mucosa was dyed with 0.1% alcian blue solution for 2 hours. After dyeing, the gastric mucosa was washed with 0.25M sucrose solution twice for 15 minutes and for 45 minutes. The dyed gastric mucosa was treated with 10 mL of 30% dioctyl sodium sulfosuccinate solution for 2 hours to extract dyed mucus completely and optical density of aqueous phase was measured spectrophotometrically at 655 nm. The amount of mucus in the gastric mucosa was shown as the amount of alcian blue after calibration (Kitagawa, H., et al., Drug Res. 1986, 36: 1240-1244).

In the next test the test system is neutrophils. The experiment in a line: Luminol-dependent chemiluminescence of neutrophils induced by FMLP. It counts as cell-based. Particulars: 1 μM FMLP, 0.07 mM luminol; for IC50: Neutrophil, read-out: IC50, inhibition of chemiluminescence generated by neutrophil activation. Here is the method: Measurement of luminol-dependent chemiluminescencei iof neutrophil induced by FMLP.
20 mL of 12% sodium caseinate-0.9% saline was administered intraperitoneally (Newsby, A. C., Biochem. J., 1980, 186: 907,. After 20 hours, the intraperitoneal exudate was extracted under ether anesthesia. The exudate was centrifuged, and erythrocytes were removed by hypotonic lysis, and then neutrophil was washed. Neutrophil was ascertained by Wright's dyeing method, and viability was measured by Trypan blue exclusion test. Chemiluminescence was measured by Topcount (Packard Co.). The suspension of 1.5×10^6 of granulocytes, 1 μM of FMLP, 0.07 mM of luminol and the compound in HBSS was used (Dahlgren, C., et al., Infect. Immun., 1985 47: 326-328).
**IC50 (μg/mL): Concentration of the compound at inhibiting
chemiluminescence generated by neutrophil activation to 50%

The next test concerns ulcer. Particulars: in vivo; cited from earlier work.

Values after ≈ are worked out from the molar mass of the structure shown.

On to `COc1ccc(-c2cc(=O)c3c(OC)cc(OCC(=O)[O-])cc3o2)cc1OC.[Na+]` [7-carboxymethyloxy-3',4',5-trimethoxy flavone sodium salt], for which the “inhibiting% (gastric lesion)” value in test [1] (0.3 mg/kg p.o.) is 4%; in test [1] (3 mg/kg p.o.), 83%; in test [1] (10 mg/kg p.o.), 80%. Further, the lesion scores with TNBS-induced colitis (0.3 mg/kg rectally) came to 4.43; in the test on TNBS-induced colitis (3 mg/kg rectally), 0.86.

As a reminder, the inhibition in vivo is the percentage by which the read-out fell short of the control. As a reminder, the IC50 is the concentration that inhibits the measured activity by half. In the case of `COc1ccc(-c2cc(=O)c3c(OC)cc(OCC(=O)O)cc3o2)cc1OC` [7-carboxymethyloxy-3',4',5-trimethoxy flavone], in test [2], 0.3 mg/kg produced 58% inhibition in vivo, testing at 1 mg/kg gave an inhibition in vivo of 68% and the inhibition in vivo at 3 mg/kg worked out at 85%. Besides, half-maximal inhibition at 5-lipoxygenase (IC50) was put at 35.5 µM. Besides, the “SC200, concentration increasing generation of PGF1α to 200%” value in the test on cyclooxygenase is 14.35 µg/mL. Moreover, in the test on gastric mucus secretion (0.3 mg/kg), the “gastric mucus secretion, % Control” value was determined as 126.5 % Control. Moreover, in the test on gastric mucus secretion (3 mg/kg), the “gastric mucus secretion, % Control” value turned out to be 122.8 % Control. Moreover, the “gastric mucus secretion, % Control” value with gastric mucus secretion (30 mg/kg) is given as 117.9 % Control.

On to `CCCCCOc1cc2c(=O)cc(-c3ccc(OC)c(OC)c3)oc2cc1OCC(=O)O` [7-carboxymethyloxy-3',4'-dimethoxy-6-n-pentyloxy flavone], for which, on 5-lipoxygenase, the IC50 was 2.8 µM.

In test [2], `COc1ccc(-c2cc(=O)c3c(O)c(OC)c(OCC(=O)O)cc3o2)cc1OC` [7-carboxymethyloxy-5-hydroxy-3',4',6-trimethoxy flavone] registered an inhibition in vivo at 0.3 mg/kg of 16%, an inhibition in vivo at 1 mg/kg of 77% and an inhibition in vivo at 3 mg/kg of 56%. In the test with neutrophils, the concentration for half-maximal inhibition (IC50) worked out at 1.73 µg/mL (≈ 4.3 µM). Further, the “SC200, concentration increasing generation of PGF1α to 200%” value in the test on cyclooxygenase worked out at 18.41 µg/mL.

With `CCCCOc1c(OCC(=O)O)cc2oc(-c3ccc(OC)c(OC)c3)cc(=O)c2c1O` [7-carboxymethyloxy-5-hydroxy-6-n-butyloxy-3',4'-dimethoxy flavone], testing at 0.1 mg/kg in test [2] (0.1 mg/kg p.o.) gave an inhibition in vivo of 43%. For the same molecule, in test [2], at 1 mg/kg the inhibition in vivo was 61% and 10 mg/kg produced 63% inhibition in vivo. Also, it took 26.3 µM to reach half-maximal inhibition on 5-lipoxygenase (IC50). The “SC200, concentration increasing generation of PGF1α to 200%” value in the test with cyclooxygenase was found to be 2.41 µg/mL.

On to `O=C(NC(Cc1cc(=O)[nH]c2ccccc12)C(=O)O)c1ccc(Cl)cc1` (stereo not shown) [Rebamipide, 2(4-chlorobenzoylamino)-3-(2-(LH)-quinolinone-4-yl)propanonic acid, reference compound], for which, in test [1] (10 mg/kg p.o.), the “inhibiting% (gastric lesion)” value worked out at 41%. Further, the “inhibiting% (gastric lesion)” value in test [1] (100 mg/kg p.o.) is on record as 7%. In addition, in test [2], the inhibition in vivo at 3 mg/kg was found to be 22% and the inhibition in vivo at 10 mg/kg was 30%. Moreover, in test [2] (30 mg/kg p.o.), at 30 mg/kg the inhibition in vivo was 47%. Further, in the test on neutrophils, the “IC50, inhibition of chemiluminescence generated by neutrophil activation” value was determined as 92 µg/mL and the IC50 was 92.1 µg/mL (≈ 248 µM). The “gastric mucus secretion, % Control” value in the test with gastric mucus secretion (10 mg/kg) is on record as 128 % Control. Further, the “gastric mucus secretion, % Control” value in the test with gastric mucus secretion (100 mg/kg) was determined as 136 % Control.

On to `COc1ccc(-c2cc(=O)c3c(O)cc(OC)cc3o2)cc1` [apigenin-7,4'-dimethylether], for which the anti-ulcerative action result with ulcer is listed as “anti-ulcerative action”.

Regarding `COc1ccc([C@@H]2CC(=O)c3c(O)cc(O[C@@H]4O[C@H](CO[C@@H]5O[C@@H](C)[C@H](O)[C@@H](O)[C@H]5O)[C@@H](O)[C@H](O)[C@H]4O)cc3O2)cc1O` [hesperidine], in the test with ulcer, the anti-ulcerative action result was “anti-ulcerative action”.

Regarding `O=c1cc(-c2ccc(O)c(O)c2)oc2c(O[C@@H]3O[C@H](CO)[C@@H](O)[C@H](O)[C@H]3O)c(O)cc(O)c12` [hypolaetin-8-glucoside], in the test with ulcer, the anti-ulcerative action result is recorded as “anti-ulcerative action”.

As for `O=c1c(O)c(-c2ccc(O)cc2)oc2cc(O)cc(O)c12` [kampferol], the anti-ulcerative action result with ulcer was “anti-ulcerative action”.

Regarding `O=C1C[C@@H](c2ccc(O)cc2)Oc2cc(O)cc(O)c21` [naringenin], the anti-ulcerative action entry with ulcer is on record as “anti-ulcerative action”.

In turn, `C[C@]12C=CC(=O)C=C1CC[C@@H]1[C@@H]2[C@@H](O)C[C@@]2(C)[C@H]1CC[C@]2(O)C(=O)CO` [prednisolone, reference compound] had a lesion scores in the test on TNBS-induced colitis (1 mg/kg rectally) of 0.83.

As for `O=c1c(O)c(-c2ccc(O)c(O)c2)oc2cc(O)cc(O)c12` [quercetin], the anti-ulcerative action result with ulcer is reported as “anti-ulcerative action”.
